Laboratory results as given in ChEMBL document CHEMBL1125900, “Biologically active taxol analogues with deleted A-ring side chain substituents and variable C-2' configurations” (J Med Chem, 1991).
pEC50: −log10 of the molar value. ≈ marks a conversion by molar mass, not a printed value.

Columns and labels:
[1] = Solubility in H2O was measured; type: physicochemical; conditions: water
CHO = test: Concentration that inhibits cell division by 50% after 72 hr for CHO cells was determined; type: functional; conditions: Cricetulus griseus, read-out: ED50 (the source's name)
J774.2 = test: Concentration that inhibits cell division by 50% after 72 hr for J774.2 cells was determined; type: functional; conditions: Mus musculus, J774.2, 72 h; read-out: ED50 (the source's name)
Homo sapiens = species on record: Homo sapiens; test: Effect on microtubule protein assembly was determined in vitro; type: functional

Row | SMILES | solubility [1] [µM] | pEC50 (J774.2) | pEC50 (CHO) | Assembly (Homo sapiens) [%]
1 | Nc1nc2c(ncn2[C@@H]2O[C@H](COP(=O)(O)OP(=O)(O)OP(=O)(O)O)[C@@H](O)[C@H]2O)c(=O)[nH]1 [GUANOSINE TRIPHOSPHATE] |  |  |  | 70
2 | CC(=O)O[C@H]1C(=O)[C@@]2(C)[C@H]([C@H](OC(=O)c3ccccc3)[C@]3(O)C[C@H](OC(=O)[C@@H](O)CNC(=O)c4ccccc4)C(C)=C1C3(C)C)[C@]1(OC(C)=O)CO[C@@H]1C[C@@H]2O | 565 (≈ 439 µg/mL) |  |  | 
3 | CC(=O)O[C@H]1C(=O)[C@@]2(C)[C@H]([C@H](OC(=O)c3ccccc3)[C@]3(O)C[C@H](OC(=O)[C@H](C)O)C(C)=C1C3(C)C)[C@]1(OC(C)=O)CO[C@@H]1C[C@@H]2O | 1000 (≈ 659 µg/mL) | 4.54 | < 4.35 | 38

The remaining molecules from weak to strong by pEC50 (J774.2), led by results:

Row | solubility [1] [µM] | pEC50 (J774.2) | SMILES | pEC50 (CHO) | Assembly (Homo sapiens) [%]
4 | 820 (≈ 540 µg/mL) | 4.57 | CC(=O)O[C@H]1C(=O)[C@@]2(C)[C@H]([C@H](OC(=O)c3ccccc3)[C@]3(O)C[C@H](OC(=O)[C@@H](C)O)C(C)=C1C3(C)C)[C@]1(OC(C)=O)CO[C@@H]1C[C@@H]2O | < 4.35 | 31
5 | 615 (≈ 478 µg/mL) | 4.70 | CC(=O)O[C@H]1C(=O)[C@@]2(C)[C@H]([C@H](OC(=O)c3ccccc3)[C@]3(O)C[C@H](OC(=O)[C@H](O)CNC(=O)c4ccccc4)C(C)=C1C3(C)C)[C@]1(OC(C)=O)CO[C@@H]1C[C@@H]2O | 4.49 | 60
6 | 175 (≈ 129 µg/mL) | 5.46 | CC(=O)O[C@H]1C(=O)[C@@]2(C)[C@H]([C@H](OC(=O)c3ccccc3)[C@]3(O)C[C@H](OC(=O)[C@H](O)Cc4ccccc4)C(C)=C1C3(C)C)[C@]1(OC(C)=O)CO[C@@H]1C[C@@H]2O | 5.26 | 68
7 | 160 (≈ 118 µg/mL) | 5.47 | CC(=O)O[C@H]1C(=O)[C@@]2(C)[C@H]([C@H](OC(=O)c3ccccc3)[C@]3(O)C[C@H](OC(=O)[C@@H](O)Cc4ccccc4)C(C)=C1C3(C)C)[C@]1(OC(C)=O)CO[C@@H]1C[C@@H]2O | 5.28 | 69
8 |  | 7.05 | CC(=O)O[C@H]1C(=O)[C@@]2(C)[C@H]([C@H](OC(=O)c3ccccc3)[C@]3(O)C[C@H](OC(=O)[C@H](O)[C@@H](NC(=O)c4ccccc4)c4ccccc4)C(C)=C1C3(C)C)[C@]1(OC(C)=O)CO[C@@H]1C[C@@H]2O [PACLITAXEL] | 6.46 | 100
